Data reported in US10981894B2, “Melanocortin subtype-2 receptor (MC2R) antagonists and uses thereof” (Crinetics Pharmaceuticals, Inc., priority 2018, dated 2021).

Each molecule was assayed against hMC2 receptor (Homo sapiens, UniProt Q01718) (assay: hMC2 membrane binding assay ([125I]ACTH (1-39) Tyr23, SPA)). Settings: crude hMC2R membranes from CRE-bla-CHO-K1 cells expressing hMC2 receptor and hMRAP; [125I]ACTH (1-39) Tyr23 0.2 nM; 1.5 hours at room temperature; read-out: MC2R binding potency.
Parameters: scale not given here
Summary of the method: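 CRE-bla-CHO-K1 membranes co-expressing hMC2 receptor and hMRAP, preincubated with WGA PVT SPA beads in pH 7.4 HEPES/MgCl2/CaCl2/0.2% BSA buffer. Compounds (typically 0–10,000 nM final) compete with 0.2 nM [125I]ACTH(1-39) Tyr23 for 1.5 h at room temperature. SPA counts give Ki by non-linear regression.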

Chain of hMC2 receptor (Q01718 whole entry): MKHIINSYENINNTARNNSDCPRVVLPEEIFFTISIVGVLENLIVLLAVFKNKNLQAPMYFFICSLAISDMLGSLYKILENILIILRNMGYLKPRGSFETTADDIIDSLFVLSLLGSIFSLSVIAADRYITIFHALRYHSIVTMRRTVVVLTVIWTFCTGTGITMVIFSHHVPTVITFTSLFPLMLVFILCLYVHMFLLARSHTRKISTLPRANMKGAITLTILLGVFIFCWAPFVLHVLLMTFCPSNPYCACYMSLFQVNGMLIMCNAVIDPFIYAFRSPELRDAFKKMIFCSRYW
Chain of hMC2 receptor (Q8TCY5 whole entry partner): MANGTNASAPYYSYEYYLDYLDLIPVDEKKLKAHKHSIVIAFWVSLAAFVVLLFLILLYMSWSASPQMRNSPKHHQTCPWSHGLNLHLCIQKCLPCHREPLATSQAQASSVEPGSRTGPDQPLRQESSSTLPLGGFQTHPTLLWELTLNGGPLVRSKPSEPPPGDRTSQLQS

Ki, < 10 nM:
CCOc1ccccc1-c1ccc(N2CCN(C(=O)c3ccc(Cl)cc3C(F)(F)F)C[C@H]2CC)c(C(=O)NC2CNC2)n1 [Compound 1-220, N-(azetidin-3-yl)-3-[(2R)-4-[4-chloro-2-(trifluoromethyl)benzoyl]-2-ethylpiperazin-1-yl]-6-(2-ethoxyphenyl)pyridine-2-carboxamide]
CCOc1ncccc1-c1ccc(N2CCN(C(=O)OC(C(C)(C)C)C(F)(F)F)C[C@H]2CC)c(C(=O)N[C@@H]2CCN(C)C2)n1 (single isomer, unassigned) [Compound 1-392, (2S*)-1,1,1-trifluoro-3,3-dimethylbutan-2-yl (3R)-4-(2′-ethoxy-6-{[(3R)-1-methylpyrrolidin-3-yl]carbamoyl}-[2,3′-bipyridin]-5-yl)-3-ethylpiperazine-1-carboxylate]
CCOc1ncccc1-c1ccc(N2CCN(C(=O)c3ccc(C(F)(F)F)cc3N3CCC(CN)C3)C[C@H]2CC)c(C(=O)NCCN)c1 (stereo partly drawn) [Compound 1-50, N-(2-aminoethyl)-2-[(2R)-4-{2-[3-(aminomethyl)pyrrolidin-1-yl]-4-(trifluoromethyl)benzoyl}-2-ethylpiperazin-1-yl]-5-(2-ethoxypyridin-3-yl)benzamide]
CCOc1ccccc1-c1ccc(N2CCN(C(=O)c3ccc(C)cc3-c3ccc(CN)cc3)C[C@H]2CC)c(C(=O)NCCN)c1 [Compound 1-18, (R)-N-(2-aminoethyl)-4-(4-(4′-(aminomethyl)-5-methyl-[1,1′-biphenyl]-2-carbonyl)-2-ethylpiperazin-1-yl)-2′-ethoxy-[1,1′-biphenyl]-3-carboxamide]
CCOc1ncccc1-c1ccc(N2CCN(C(=O)c3ccc(Cl)cc3C(F)(F)F)C[C@H]2CC)c(C(=O)NCCN(C)C)c1F [Compound 1-173, 6-[(2R)-4-[4-chloro-2-(trifluoromethyl)benzoyl]-2-ethylpiperazin-1-yl]-N-[2-(dimethylamino)ethyl]-3-(2-ethoxypyridin-3-yl)-2-fluorobenzamide]
CCOc1ncccc1-c1ccc(N2CCN(C(=O)c3ccc(F)cc3C(F)(F)F)C[C@H]2CC)c(C(=O)NCCNC)n1 [Compound 1-136, 2′-ethoxy-5-[(2R)-2-ethyl-4-[4-fluoro-2-(trifluoromethyl)benzoyl]piperazin-1-yl]-N-[2-(methylamino)ethyl]-[2,3′-bipyridine]-6-carboxamide]
CCOc1ncccc1-c1ccc(N2CCN(C(=O)c3ccc(Cl)cc3C(F)(F)F)C[C@H]2CC)c(C(=O)NCC2CNC2)n1 [Compound 1-222, N-[(azetidin-3-yl)methyl]-5-[(2R)-4-[4-chloro-2-(trifluoromethyl)benzoyl]-2-ethylpiperazin-1-yl]-2′-ethoxy-[2,3′-bipyridine]-6-carboxamide]
CCOc1ncccc1-c1ccc(N2CCN(C(=O)N3CCc4cccc(C)c43)C[C@H]2CC)c(C(=O)N[C@@H]2CCNC2)n1 [Compound 1-360, 2′-ethoxy-5-[(2R)-2-ethyl-4-(7-methyl-2,3-dihydro-1H-indole-1-carbonyl)piperazin-1-yl]-N-[(3R)-pyrrolidin-3-yl]-[2,3′-bipyridine]-6-carboxamide]
CCOc1ncccc1-c1ccc(N2CCN(C(=O)c3ccc(Cl)cc3C(F)F)C[C@H]2CC)c(C(=O)NCCN(C)C)c1F [Compound 1-184, 6-[(2R)-4-[4-chloro-2-(difluoromethyl)benzoyl]-2-ethylpiperazin-1-yl]-N-[2-(dimethylamino)ethyl]-3-(2-ethoxypyridin-3-yl)-2-fluorobenzamide]
CCOc1ccccc1-c1ccc(N2CCN(C(=O)c3ccc(Cl)cc3C(F)(F)F)C[C@H]2CC)c(C(=O)NCCN(C)C)n1 [Compound 1-149, 3-[(2R)-4-[4-chloro-2-(trifluoromethyl)benzoyl]-2-ethylpiperazin-1-yl]-N-[2-(dimethylamino)ethyl]-6-(2-ethoxyphenyl)pyridine-2-carboxamide]
CCOc1ncccc1-c1ccc(N2CCN(C(=O)c3ccc(Cl)cc3C(F)(F)F)C[C@H]2CC)c(C(=O)NC[C@H]2CCN2)c1F [Compound 1-123, N-{[(2R)-azetidin-2-yl]methyl}-6-[(2R)-4-[4-chloro-2-(trifluoromethyl)benzoyl]-2-ethylpiperazin-1-yl]-3-(2-ethoxypyridin-3-yl)-2-fluorobenzamide]
CCOc1ccccc1-c1ccc(N2CCN(C(=O)c3ccc(Cl)cc3C(F)(F)F)C[C@H]2CC)c(C(=O)NC2CN(C)C2)n1 [Compound 1-221, 3-[(2R)-4-[4-chloro-2-(trifluoromethyl)benzoyl]-2-ethylpiperazin-1-yl]-6-(2-ethoxyphenyl)-N-(1-methylazetidin-3-yl)pyridine-2-carboxamide]
CCOc1ncccc1-c1ccc(N2CCN(C(=O)n3ccc4cccc(C(F)(F)F)c43)C[C@H]2CC)c(C(=O)N[C@@H]2CCN(C)C2)n1 [Compound 1-436, 2′-ethoxy-5-[(2R)-2-ethyl-4-[7-(trifluoromethyl)-1H-indole-1l-carbonyl]piperazin-1-yl]-N-[(3R)-1-methylpyrrolidin-3-yl]-[2,3′-bipyridine]-6-carboxamide]
CCOc1ncccc1-c1ccc(N2CCN(C(=O)c3ccc(OC)cc3C(F)(F)F)C[C@H]2CC)c(C(=O)NCCNC)n1 [Compound 1-167, 2′-ethoxy-5-[(2R)-2-ethyl-4-[4-methoxy-2-(trifluoromethyl)benzoyl]piperazin-1-yl]-N-[2-(methylamino)ethyl]-[2,3′-bipyridine]-6-carboxamide]
CCOc1ccc(C(=O)N2CCN(c3ccc(-c4cccnc4OCC)nc3C(=O)NC[C@@H]3CCN3)[C@H](CC)C2)c(C(F)(F)F)n1 [Compound 1-256, N-{[(2S)-azetidin-2-yl]methyl}-2′-ethoxy-5-[(2R)-4-[6-ethoxy-2-(trifluoromethyl)pyridine-3-carbonyl]-2-ethylpiperazin-1-yl]-[2,3′-bipyridine]-6-carboxamide]
CCOc1ncccc1-c1ccc(N2CCN(C(=O)c3ccc(Cl)cc3C(F)(F)F)C[C@H]2CC)c(C(=O)NCCN)c1F [Compound 1-69, N-(2-aminoethyl)-6-[(2R)-4-[4-chloro-2-(trifluoromethyl)benzoyl]-2-ethylpiperazin-1-yl]-3-(2-ethoxypyridin-3-yl)-2-fluorobenzamide]
CCOc1ccc(C(=O)N2CCN(c3ccc(-c4cccnc4OCC)nc3C(=O)NCCNC)[C@H](CC)C2)c(C(F)(F)F)n1 [Compound 1-181, 2′-ethoxy-5-[(2R)-4-[6-ethoxy-2-(trifluoromethyl)pyridine-3-carbonyl]-2-ethylpiperazin-1-yl]-N-[2-(methylamino)ethyl]-[2,3′-bipyridine]-6-carboxamide]
CCOc1ccccc1-c1ccc(N2CCN(C(=O)N3CCCC[C@H]3C(F)(F)F)C[C@H]2CC)c(C(=O)N[C@H]2CCN(C)C2)n1 [Compound 1-435, 6-(2-ethoxyphenyl)-3-[(2R)-2-ethyl-4-[(2S)-2-(trifluoromethyl)piperidine-1-carbonyl]piperazin-1-yl]-N-[(3S)-1-methylpyrrolidin-3-yl]pyridine-2-carboxamide]
CCOc1ncccc1-c1ccc(N2CCN(C(=O)c3ccc(OC)nc3C(F)(F)F)C[C@H]2CC)c(C(=O)N[C@@H]2CCNC2)n1 [Compound 1-240, 2′-ethoxy-5-[(2R)-2-ethyl-4-[6-methoxy-2-(trifluoromethyl)pyridine-3-carbonyl]piperazin-1-yl]-N-[(3R)-pyrrolidin-3-yl]-[2,3′-bipyridine]-6-carboxamide]
CCOc1ncccc1-c1ccc(N2CCN(C(=O)c3ccc(F)cc3C(F)(F)F)C[C@H]2CC)c(C(=O)NCCN)c1 [Compound 1-58, N-(2-aminoethyl)-5-(2-ethoxypyridin-3-yl)-2-[(2R)-2-ethyl-4-[4-fluoro-2-(trifluoromethyl)benzoyl]piperazin-1-yl]benzamide]
CCOc1ncccc1-c1ccc(N2CCN(C(=O)c3ccc(C)cc3N3CC[C@H](NC)C3)C[C@H]2CC)c(C(=O)NCCN)c1 [Compound 1-67, N-(2-aminoethyl)-5-(2-ethoxypyridin-3-yl)-2-[(2R)-2-ethyl-4-{4-methyl-2-[(3S)-3-(methylamino)pyrrolidin-1-yl]benzoyl}piperazin-1-yl]benzamide]
CCOc1ncccc1-c1ccc(N2CCN(C(=O)c3ccc(Cl)cc3C(F)(F)F)C[C@H]2CC)c(C(=O)NC2CN(C)C2)n1 [Compound 1-212, 5-[(2R)-4-[4-chloro-2-(trifluoromethyl)benzoyl]-2-ethylpiperazin-1-yl]-2′-ethoxy-N-(1-methylazetidin-3-yl)-[2,3′-bipyridine]-6-carboxamide]
CCOc1ncccc1-c1ccc(N2CCN(C(=O)c3ccc(Cl)cc3C(F)(F)F)C[C@H]2CC)c(C(=O)NC[C@@H]2CNCCO2)c1 [Compound 1-109, 2-[(2R)-4-[4-chloro-2-(trifluoromethyl)benzoyl]-2-ethylpiperazin-1-yl]-5-(2-ethoxypyridin-3-yl)-N-{[(2S)-morpholin-2-yl]methyl}benzamide]
CCOc1ncccc1-c1ccc(N2CCN(C(=O)c3ccc(C4CC4)cc3C)C[C@H]2CC)c(C(=O)NCCN)c1 [Compound 1-88, N-(2-aminoethyl)-2-[(2R)-4-(4-cyclopropyl-2-methylbenzoyl)-2-ethylpiperazin-1-yl]-5-(2-ethoxypyridin-3-yl)benzamide]
CCOc1ncccc1-c1ccc(N2CCN(C(=O)c3ccc(Cl)cc3C(F)(F)F)C[C@H]2CC)c(C(=O)N[C@H]2CCNC2)c1 [Compound 1-92, 2-[(2R)-4-[4-chloro-2-(trifluoromethyl)benzoyl]-2-ethylpiperazin-1-yl]-5-(2-ethoxypyridin-3-yl)-N-[(3S)-pyrrolidin-3-yl]benzamide]
